Data taken from US6951727B2, “Methods and reagents for quantitation of cell-surface molecule expression on peripheral blood cells” (Becton Dickinson and Company, priority 1998, dated 2005).
“Also recorded” adds a separate entry of the source. Where two headings read alike, the source gives them in different places.

Assays:
[1] = tested on: HLA-DR on CD14+ peripheral blood monocytes; assay: Stabilization of HLA-DR-specific fluorescent signal during anti-HLA-DR antibody staining of whole blood, flow cytometry; format: cell-based, human
Experimental: Peripheral blood samples were drawn from normal volunteers.
The time-dependence of the HLA-DR-specific signal detectable by flow cytometry of antibody-stained peripheral blood monocytes was assessed by varying the duration of antibody staining.
The effect of various additives on the stability of HLA-DR-specific fluorescence intensity was tested by including these reagents during the staining step.
Incubation was at room temperature for the times indicated, after which 1 ml of 1× FACS™ Lysing Solution was added and incubation continued for 10 minutes.
Following erythrocyte lysis, the samples were centrifuged at 250×g for 5 minutes, the supernatant removed, the pellet resuspended in 2 ml of PBS+0.5% BSA and recentrifuged. The final pellet was suspended in 0.5 ml of PBS+BSA and analyzed by flow cytometry, as above. Results are plotted in FIG. 2A.
A second experiment, reported in FIG. 2B, was performed similarly, but omitting the post-lysis wash step: following erythrocyte lysis, the samples were centrifuged at 250×g for 5 minutes, the supernatant, containing lysis debris, removed, and the pellet resuspended directly in 0.5 ml of PBS+0.5% BSA. Again, flow cytometric acquisition of at least 2000 monocyte events was performed, and the PE fluorescence intensity of the monocyte population plotted.
To test whether Brefeldin A and monensin would similarly stabilize HLA-DR expression in the flow cytometric assay, an additional series of experiments was performed.
To 50 μl EDTA-anticoagulated whole blood was added 10 μl staining reagent (500 ng of HLA-DR-PE and 63 ng CD14-PerCP/CY5.5 in buffered saline containing gelatin and 0.1% sodium azide); the staining reagent further included the additives noted below. Samples were incubated with staining reagent for the times indicated, after which 1 ml of 1× FACS™ Lysing Solution was added. After incubation with lysing solution for 9.5 to 11.5 minutes, samples were directly analyzed using a FACSCalibur™ brand flow cytometer (BDIS, San Jose, Calif.).
Additives to the staining composition for this latter series of experiments, reported in FIG. 2C, were: (A) nothing (“Control”); (B) 18 mM chloroquine; (C) 0.2 mM Brefeldin A; and (D) 0.013 mM monensin. Final concentrations of additives after 1:6 dilution during staining were: (B) 3 mM chloroquine; (C) 0.034 mM Brefeldin A; and (D) 0.0022mM monensin. […] 212:89-98 (1998).
The data presented in FIG. 2C were acquired immediately after lysis; in contrast to experiments the results of which are presented in FIG. 1, the removal of lysis debris (by centrifugation and aspiration, optionally followed by wash) was omitted.
A further experiment was performed to determine the minimum concentration of chloroquine needed to effect stabilization of HLA-DR expression on the surface of monocytes.
An aliquot of 50 μl peripheral blood was drawn from a healthy volunteer and mixed with 10 μl HLA-DR quantitation reagent (50 μg/ml HLA-DR PE, 6.3 μg/ml CD14 PerCP-Cy5.5, in 10 mM sodium pyrophosphate, 0.15 M NaCl, pH 8). The HLA-DR quantitation reagent further contained chloroquine at 0 mM (control), 6 mM, 12 mM, or 18 mM.
In each experiment, 4 blood samples were stained for each chloroquine level, with one each of the samples stained for 20, 40, 60 or 80 minutes.
At the end of the staining period, the samples were lysed with 1× FACS™ Lysing Solution (BDIS) and analyzed on a FACScalibur Flow Cytometer. Five hundred monocyte events were collected.

[2] = tested on: CD11b on human blood cells; assay: Stabilization of CD11b-specific fluorescent signal during antibody staining of whole blood, flow cytometry; format: cell-based; conditions: 3 mM final concentration, whole blood of three normal donors
Experimental: Blood from three normal adult donors was collected in standard EDTA Vacutainer® tubes and placed directly on ice. Fifty (50) μl of whole blood was transferred to a tube containing 20 μl of a cocktail of CD11b PE and CD45 PerCP antibodies with or without chloroquine, with the chloroquine-containing tubes having a final chloroquine concentration of 3 mM. Blood was stained for the indicated time at room temperature before addition of 1.0 ml FACS lysing reagent (1×). Flow cytometric analysis was performed essentially as described in Examples 1 and 2.

[3] = tested on: monocyte HLA-DR expression; conditions: cited from earlier work
[4] = additive during staining, final concentration 3 mM chloroquine, 0.1% azide, 0.034 mM Brefeldin A, 0.0022 mM monensin, 10-15 to 60 min incubation

## C[C@H]1CCC/C=C/[C@@H]2C[C@H](O)C[C@H]2[C@H](O)/C=C/C(=O)O1 [Brefeldin A]
[1]; [4]
  stabilization of HLA-DR fluorescence signal over incubation time: no significant stabilization

## CCN(CC)CCCC(C)Nc1ccnc2cc(Cl)ccc12 (stereo not shown) [chloroquine]
[1]
  minimum concentration needed to effect HLA-DR stabilization: 2 mM
  stabilization of HLA-DR expression at 1 mM: insufficient to effect stabilization
  stabilization of HLA-DR fluorescence signal over incubation time: reliably stabilized HLA-DR fluorescence; also recorded: stabilizes the HLA-DR fluorescence signal
[2]
  stabilization of CD11b fluorescent signal over staining time: can similarly be stabilized

## CCN(CCO)CCCC(C)Nc1ccnc2cc(Cl)ccc12 (stereo not shown) [hydroxychloroquine]
[1]; experiments not shown
  stabilizing HLA-DR signal compared with chloroquine: equally effective

## CC[C@@]1([C@@H]2O[C@@H]([C@H]3O[C@@](O)(CO)[C@H](C)C[C@@H]3C)C[C@@H]2C)CC[C@H]([C@]2(C)CC[C@]3(C[C@H](O)[C@@H](C)[C@@H]([C@@H](C)[C@@H](OC)[C@H](C)C(=O)O)O3)O2)O1 [monensin]
[1]; [4]
  stabilization of HLA-DR fluorescence signal over incubation time: no significant stabilization

## Gamma interferon: proinflammatory cytokine, major activator of monocytes
[3]; of 10 septic patients with fewer than 30% HLA-DR positive monocytes
  patients showing an increase in monocyte HLA-DR expression within 1 day of treatment: 8
[3]; of 10 septic patients
  patients responding within 2 to 3 days: 2
[3]; septic patients
  TNFα and IL-6 plasma levels during treatment: significant increase
